{"source": "patent US11998005B2", "about": "“Herbicidal formulations comprising glyphosate and COTE-based adjuvants” (NOURYON CHEMICALS INTERNATIONAL B.V., priority 2018, dated 2024)", "tested_on": "wheat representing narrow leaf weeds", "experiment": "Bioefficacy, greenhouse spray test with IPA glyphosate + adjuvant", "format": "in vivo", "settings": "compared to untreated plant", "description": "All bioefficacy testing was done at University of Georgia's Agricultural Experiment Station in Griffin, Georgia Concentrates were first formulated by blending IPA glyphosate salt with the desired amount surfactant and water resulting in a 20 wt % ae and a 6.49% surfactant solution. Prior to spraying two sets of diluted solutions were prepared by dissolving 16 g of concentrates into 984 grams of tap water and a second set by dissolving 500 g of the above dilute solution into 500 g of tap water. […] All of the plants were placed in a temperature controlled greenhouse and measured for growth (or lack of) each week for a period of 4 weeks. The data is reported as % Growth Control compared to untreated plant. The higher the value the better the bioefficacy. When the last measurement was taken at 4 weeks the plants are cut at the roots and the “fresh” weight measured.\nTesting in the foregoing manner yielded the following results: • Plant Species—Wheat • IPA-glyphosate application rate—300 g a.e./H\n• Plant Species—Wheat • IPA-glyphosate application rate—600 g a.e./H", "data": [{"smiles": "O=C(O)CNCP(=O)(O)O", "note": "[IPA-Glyphosate only, N-phosphonomethylglycine]", "values": [{"measurement": "% Growth Control", "setting": "IPA-glyphosate application rate 300 g a.e./H", "result": 31, "unit": "%"}, {"measurement": "% Growth Control", "setting": "IPA-glyphosate application rate 600 g a.e./H", "result": 72, "unit": "%"}]}]}
